In PMC4830886, “Extended evaluation on the ES-D3 cell differentiation assay combined with the BeWo transport model, to predict relative developmental toxicity of triazole compounds” (Archives of Toxicology, 2015):

How the values were obtained:
[1] = tested on: BeWo b30 cell layers; test: in vitro BeWo transport model (placental transfer)
Procedure: (§1) To study placental transfer of test compounds, BeWo transport experiments were performed as described previously (Li et al. [2013]). Briefly, BeWo b30 cells (passages 27–45) were cultured in DMEM (Zwijndrecht, The Netherlands), supplemented with 10 % (v/v) heat-inactivated FCS (HyClone-Perbio, Etten-Leur, The Netherlands), 10,000 U/ml penicillin, 10 mg/ml streptomycin and 2 mM L-glutamine. The cells were seeded at a density of 1 × 10^5 cells/cm^2 on transwell® polycarbonate membranes (12 mm diameter, 0.4 μm pore size) (VWR International BV, Amsterdam, The Netherlands) coated with human placental collagen. The medium (0.5-ml apical compartment, 1.5-ml basolateral compartment) was replaced daily. At day 6 postseeding, the BeWo b30 cell layers were used for transport experiments. The barrier-forming capacity of the BeWo cell layers was evaluated by measuring the transepithelial electrical resistance (TEER) of the cell monolayer using a Millicell ERS-2 Volt-Ohm Meter (Millipore, USA) at day 6 postseeding as described previously (Li et al. [2013]). Only the cell layers showing TEER values between 80 and 100 Ω cm^2 were used for transport experiments.
(§2) Transport experiments were initiated by adding 0.5 ml of transport buffer Hank’s balanced salt solution (HBSS, Invitrogen, Breda, The Netherlands) containing the test compound, being 0594, 0595, 0596, 0599, 0600 and 0618, dissolved in DMSO (final solvent concentration 0.5 % DMSO), at concentration of 50 μM, to the apical compartment and 1.5 ml transport buffer to the basolateral compartment. Subsequently, the plate was incubated in a humidified atmosphere with 5 % CO2 at 37 °C. After 15, 30, 60 and 90 min, a sample of 0.2 ml was taken from the basolateral compartment and replaced by an equal volume of transport buffer. At the end of each experiment, a 0.2-ml sample was also taken from the apical compartment. Subsequently, the filters with the BeWo b30 cell layers were washed three times with PBS, cut out of the insert, dissolved in 0.25 ml 65 % (v/v) methanol and sonificated for 15 min in a Bandelin Sonorex RK100 (Berlin, Germany) in order to determine the amount of compound accumulated in the cells. After each experiment, mass balance calculations were performed. In each transport study, amoxicillin and antipyrine were included as control and reference compounds. Amoxicillin transport was included to assess for monolayer integrity since it is a compound known to be transported only to a limited extent across the placenta, whereas antipyrine was included as a control for optimal transport and a reference compound to enable calculation of relative transport rates (Li et al. [2013]). The transport of the six test compounds, as well as the reference compounds amoxicillin and antipyrine, through the permeable membrane of the transwell filter in the absence of BeWo cells was determined as well. […] For each test compound, three independent experiments were performed, with three technical replicates per experiment.
(§3) Samples were analyzed using high-performance liquid chromatography (HPLC) to quantify the amount of test compound in order to determine the transport rate and to perform mass balance calculations. The HPLC system used consisted of a Waters (Milford, MA) 600 controller and a 600 pump, equipped with a photodiode array detector set to record absorption of wavelengths between 200 and 400 nm. A Waters 717 plus autosampler was used for sample injection. The temperature of the autosampler was kept at 7 °C.
(§4) For analysis of all compounds, 50 μl sample was injected to a C18 5 μm reverse-phase column (150 mm × 4.6 mm I.D.) with a guard column (7.5 mm × 4.6 mm I.D.) (Alltech, Bergen op Zoom, The Netherlands). The mobile phase used for analysis of all the test compounds consisted of (A) 0.1 % trifluoroacetic acid in nanopure water and (B) HPLC-grade acetonitrile. Elution was at a flow rate of 0.8 ml/min, starting at 22 % B with a linear increase to 100 % B in 8 min.

[2] = in vitro BeWo transport model (placental transfer); settings: human
Procedure: as §1, §2, §3, §4

| Intracellular accumulation (% of added amount) ([1]; BeWo cells, 50 μM (25 nmol) apical, at 90 min) | Structure (SMILES) | Papp at 30 min, 50 μM [2] | Intracellular accumulation (% of added amount) ([1]; human, 90 min, 50 μM) | Relative Papp value ([1]; human, not told, 50 μM) |
| --- | --- | --- | --- | --- |
| 0 % of added amount | CC1(C)S[C@@H]2[C@H](NC(=O)[C@H](N)c3ccc(O)cc3)C(=O)N2[C@H]1C(=O)O [Amoxicillin, amoxicillin, reference compound] | 6.5 ± 0.2 ×10⁻⁶ cm/s | – | – |
| – | Cc1cc(=O)n(-c2ccccc2)n1C [Antipyrine, antipyrine, reference compound] | 38.9 ± 3 ×10⁻⁶ cm/s | 0 % of added amount | 1.00 |
